Assay results taken from US4914198A, “Novel substance UCY1003 and process for preparing the same” (priority 1985, dated 1990).
Values after ≈ are worked out from the molar mass of the structure shown.

Legend:
[1] = system: Male spontaneously hypertensive rats (SHR) of Okamoto-Aoki strain; assay: Hypotensive activity: systolic blood pressure of conscious SHR, tail artery, plethysmographic apparatus; assay type: in vivo, rat (SHR; conditions: for Blood Pressure after (90 min): 90 min after administration; for Blood Pressure after (90 min) / Blood Pressure Difference (before vs 90 min after administration) / Blood Pressure before: N = 3; for Blood Pressure after (90 min) / Blood Pressure before: mean ± S.E.; for Blood Pressure Difference (before vs 90 min after administration): a decrease; for Blood Pressure before: before administration (baseline)
Method: Male spontaneously hypertensive rats (SHR) of Okamoto-Aoki strain (body weight, 310-360 g) were used. Systolic blood pressure of conscious SHR was measured indirectly from the tail artery with a plethysmographic apparatus (Ueda Electric Works, USM-105R). Test compound UCY1003 was suspended in 0.3% sodium carboxymethylcellulose (CMC) solution and was intraperitoneally administered in a volume of 2 ml per kg of body weight.

[2] = system: male dd mice (number of writhes); assay: Analgesic activity: acetic acid-induced writhing in mice; assay type: in vivo; conditions: for Inhibition Ratio: i.p., 60 min before acetic acid, N = 4
Method: In this experiment, 4 male dd mice wieghing 20±1 g were used as one group for examination of analgesic activity. Sixty minutes after intraperitoneal administration of UCY1003 to each animal, 0.2 ml of a 0.7% acetic acid solution was intraperitoneally administered to the animal. Starting 10 minutes after the administration of acetic acid, the number of writhes occurred in 5 minutes was counted. Inhibition ratio in comparison with control group was calculated by the following equation. ED50 value was calculated in accordance with Litchfield and Wilcoxon. [formula] A: Average number of writhes of control group B: Average number of writhes of test group

[3] = Acute toxicity in mice; conditions: mouse, in vivo, ip; single intraperitoneal administration, 5 ddY mice, 14 days observation, Beherns Karber's method
Method: UCY1003 was intraperitoneally administered once to each animal of the test group consisting of 5 ddY mice. […] The LD50 was determined by Beherns Karber's method to be more than 200 mg/kg.

[4] = system: Staphylococcus aureus ATCC 6538P; assay: Agar dilution method (pH 7), MIC; assay type: cell-based; conditions: ATCC6538P
Excerpt: (§1) Anti-bacterial activities of UCY1003 against various microorganisms measured by agar dilution method (pH 7) are shown in Table 3.

[5] = system: Salmonella typhosa ATCC 9992; assay: Agar dilution method (pH 7), MIC; assay type: cell-based; conditions: Salmonella enterica
Excerpt: as §1

[6] = system: Escherichia coli ATCC 26; assay: Agar dilution method (pH 7), MIC; assay type: cell-based; conditions: ATCC26
Excerpt: as §1

[7] = system: Bacillus subtilis No. 10707; assay: Agar dilution method (pH 7), MIC; assay type: cell-based
Excerpt: as §1

[8] = system: Saccharomyces cerevisiae C-203; assay: Agar dilution method (pH 7), MIC; assay type: cell-based; conditions: C203
Excerpt: as §1

[9] = system: Klebsiella pneumoniae ATCC 10031; assay: Agar dilution method (pH 7), MIC; assay type: cell-based; conditions: ATCC10031
Excerpt: as §1

[10] = system: Candida albicans ATCC 10231; assay: Agar dilution method (pH 7), MIC; assay type: cell-based; conditions: ATCC10231
Excerpt: as §1

C=C(CCC1(C)OC2O[C@@H]3C[C@H]1[C@]21CC[C@@H]2[C@@]4(C)CC[C@H](O)C[C@@H]4C[C@@H]4O[C@@]42[C@H]31)C(C)C (stereo partly drawn) [UCY1003]
Blood Pressure after (90 min) ([1]; 50 mg/kg, i.p.): 177 ± 14 mmHg | Blood Pressure Difference (before vs 90 min after administration) ([1]; 50 mg/kg, i.p.): 18 ± 15 mmHg | hypotension ([1]; 100 mg/kg, i.p.): caused hypotension | Blood Pressure after (90 min) ([1]; 100 mg/kg, i.p.): 142 ± 9 mmHg | Blood Pressure Difference (before vs 90 min after administration) ([1]; 100 mg/kg, i.p.): 45 ± 8 mmHg | Blood Pressure before ([1]; 50 mg/kg i.p. group): 195 ± 8 mmHg | Blood Pressure before ([1]; 100 mg/kg i.p. group): 187 ± 3 mmHg | Inhibition Ratio ([2]; 5 mg/kg): 17% | Inhibition Ratio ([2]; 10 mg/kg): 52% | Inhibition Ratio ([2]; 25 mg/kg): 52% | Inhibition Ratio ([2]; 50 mg/kg): 83% | Inhibition Ratio ([2]; 100 mg/kg): 95% | ED50 ([2]; Mus musculus, ip, calculated in accordance with Litchfield and Wilcoxon): 17 mg/kg | LD50 at 336 h [3]: > 200 mg/kg | MIC [4]: > 100 µg/mL | MIC [5]: > 100 µg/mL | MIC [6]: > 100 µg/mL | MIC [7]: > 100 µg/mL | MIC [8]: 2 µg/mL (≈ 4.52 µM) | MIC [9]: > 100 µg/mL | MIC [10]: > 100 µg/mL
